Results on three molecules are retold here after US20230114728A1 (Venatorx Pharmaceuticals, Inc., priority 2019, published 2023).

For orientation: EC50 means the concentration at which the effect is half-maximal. A low value points to higher potency in that assay.

One test has as its target T1, E. coli K12 PBP3 (Escherichia coli, UniProt P0AD68).
T1 construct: made in house
As to the kind of experiment: biochemical. The format is binding. In short, it runs like this:
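A. baumannii PBP2 (2.5 μM) and PBP3 (0.2 μM) were run in 25 mM Tris pH 8.0 buffer with Tween 20; E. coli PBP3 (1.5 μM) and N. gonorrhoeae PBP2 ([…]) in 50 mM Hepes pH 8.0 buffer.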

For a further test, the target named is T2, P. aeruginosa PBP3 (Pseudomonas aeruginosa, UniProt G3XD46).
T2 construct: made in house
T2 sequence (G3XD46 whole entry): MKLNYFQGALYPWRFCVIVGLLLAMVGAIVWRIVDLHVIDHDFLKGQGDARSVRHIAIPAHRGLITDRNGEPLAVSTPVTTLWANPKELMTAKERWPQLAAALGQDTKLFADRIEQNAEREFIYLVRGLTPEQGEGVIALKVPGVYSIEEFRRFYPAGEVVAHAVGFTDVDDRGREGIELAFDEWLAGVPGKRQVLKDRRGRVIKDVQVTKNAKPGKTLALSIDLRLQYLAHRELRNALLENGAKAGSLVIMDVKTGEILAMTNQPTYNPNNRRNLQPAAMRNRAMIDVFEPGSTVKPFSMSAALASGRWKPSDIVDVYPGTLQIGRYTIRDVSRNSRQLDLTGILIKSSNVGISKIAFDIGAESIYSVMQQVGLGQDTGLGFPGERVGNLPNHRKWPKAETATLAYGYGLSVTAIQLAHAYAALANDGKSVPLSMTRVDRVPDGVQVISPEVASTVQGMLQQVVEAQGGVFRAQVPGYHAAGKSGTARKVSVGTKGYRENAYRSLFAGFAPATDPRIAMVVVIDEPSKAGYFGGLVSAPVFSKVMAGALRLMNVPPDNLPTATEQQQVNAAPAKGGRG
As to the kind of experiment: Bocillin-FL fluorescence polarization competition binding assay, P. aeruginosa PBP3. Particulars: fluorescence polarization competition binding assay using Bocillin-FL. In short, it runs like this: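 Inhibitor competition with Bocillin-FL for P. aeruginosa PBP3 was followed by fluorescence polarization on a Cytation3 (BioTek) reader, using g-factor 0.96, 490 nm excitation and 520 nm emission. The enzyme was at 0.75 μM and the probe at 0.1 μM in Hepes/NaCl/glycerol buffer, 80 μl per well. FP was recorded immediately after probe addition for up to 60 minutes. Potency was expressed as EC50, the concentration that reduces bound probe by 50%.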

Test [1] relates to N. gonorrhoeae ATCC 49226. Description: Liquid broth MIC in Fastidious broth. The format is cell-based. Particulars: Neisseria gonorrhoeae, ATCC49226; N. gonorrhoeae strain ATCC 49226; Fastidious broth; read-out: Minimum Inhibitory Concentration, N. gonorrhoeae ATCC 49226. In short, it runs like this:
(§1)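 Colonies were swabbed from chocolate agar after 24 h growth and standardised by optical density at 600 nm. Compounds were serially diluted twofold in Fastidious broth, and bacteria added to give 5×10^5 CFU/mL. After about 24 h at 36 °C in 5% CO2, the lowest concentration allowing under 10% growth was taken as MIC.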

The test system of a further test is N. gonorrhoeae FA1090. Description: Liquid broth MIC in Fastidious broth. In kind it is cell-based. Particulars: Neisseria gonorrhoeae; N. gonorrhoeae strain FA1090; Fastidious broth; read-out: Minimum Inhibitory Concentration, N. gonorrhoeae FA1090. Put shortly:
as §1

For a further test, the system named is N. gonorrhoeae H041. As to the kind of experiment: Liquid broth MIC in Fastidious broth. The format is cell-based. Particulars: Neisseria gonorrhoeae, H041, read-out: Minimum Inhibitory Concentration, N. gonorrhoeae H041. In short, it runs like this: (§2)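 Broth microdilution in Fastidious broth with 2-fold compound series; inoculum from 24 h chocolate agar colonies, 5×10^5 CFU/mL start. Incubated ~24 hours at 36° C, 5% CO2. MIC read visually as lowest concentration giving <10% growth versus full-growth wells; strains carry mosaic PBP2.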

The test system of the next test is N. gonorrhoeae WHO G. Description: Liquid broth MIC in Fastidious broth. In kind it is cell-based. Particulars: Neisseria gonorrhoeae; N. gonorrhoeae strain WHO G; Fastidious broth; read-out: Minimum Inhibitory Concentration, N. gonorrhoeae WHO G. In short, it runs like this:
as §1

A further test deals with N. gonorrhoeae WHO K. Description: Liquid broth MIC in Fastidious broth. In kind it is cell-based. Particulars: Neisseria gonorrhoeae, read-out: Minimum Inhibitory Concentration, N. gonorrhoeae WHO K. In short, it runs like this:
as §2

Another test deals with N. gonorrhoeae WHO L. As to the kind of experiment: Liquid broth MIC in Fastidious broth. In kind it is cell-based. The settings on record: Neisseria gonorrhoeae; N. gonorrhoeae strain WHO L; Fastidious broth; read-out: Minimum Inhibitory Concentration, N. gonorrhoeae WHO L. Put shortly: as §1

≈ marks a conversion by molar mass, not a printed value.

T1 sequence (P0AD68 1-577): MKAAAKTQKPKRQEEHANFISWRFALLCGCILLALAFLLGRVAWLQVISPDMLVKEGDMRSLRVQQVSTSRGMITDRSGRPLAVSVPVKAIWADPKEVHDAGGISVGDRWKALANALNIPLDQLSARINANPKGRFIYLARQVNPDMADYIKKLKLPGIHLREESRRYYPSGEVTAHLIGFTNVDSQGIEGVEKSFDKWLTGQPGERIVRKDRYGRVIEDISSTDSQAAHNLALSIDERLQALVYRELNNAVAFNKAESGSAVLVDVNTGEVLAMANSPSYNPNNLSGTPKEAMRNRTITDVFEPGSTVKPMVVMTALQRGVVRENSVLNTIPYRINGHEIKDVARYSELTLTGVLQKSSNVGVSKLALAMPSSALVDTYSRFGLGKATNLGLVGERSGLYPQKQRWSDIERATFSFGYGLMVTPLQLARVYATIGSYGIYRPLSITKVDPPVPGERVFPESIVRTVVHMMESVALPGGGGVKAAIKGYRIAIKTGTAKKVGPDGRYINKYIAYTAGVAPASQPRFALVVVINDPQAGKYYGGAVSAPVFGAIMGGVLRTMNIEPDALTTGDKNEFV

Take `CCN1CCN(C(=O)NC(C(=O)N[C@H]2Cc3cccc(C(=O)O)c3OB2O)c2cccc(NC(=O)c3cccnc3)c2)C(=O)C1=O` (stereo partly drawn) [Example 97, (3R)-3-(2-(4-ethyl-2,3-dioxopiperazine-1-carboxamido)-2-(3-(nicotinamido)phenyl)acetamido)-2-hydroxy-3,4-dihydro-2H-benzo[e][1,2]oxaborinine-8-carboxylic acid]: the EC50 at E. coli K12 PBP3 is less than 30 µM. Moreover, the “P. aeruginosa PBP3 Potency” value on P. aeruginosa PBP3 is reported as “D (D represents a potency <10 μM)”. The MIC is greater than 64 µg/mL in test [1]; 1 to 2 µg/mL (≈ 1.59 to 3.18 µM) with N. gonorrhoeae FA1090; greater than 64 µg/mL with N. gonorrhoeae H041; 4 to 8 µg/mL (≈ 6.37 to 12.7 µM) with N. gonorrhoeae WHO G; greater than 64 µg/mL in the test with N. gonorrhoeae WHO K; greater than 64 µg/mL in the test with N. gonorrhoeae WHO L.
With `CCN1CCN(C(=O)NC(C(=O)N[C@H]2Cc3cccc(C(=O)O)c3OB2O)c2cccc(NS(N)(=O)=O)c2)C(=O)C1=O` (stereo partly drawn) [Example 98, (3R)-3-(2-(4-ethyl-2,3-dioxopiperazine-1-carboxamido)-2-(3-(sulfamoylamino)phenyl)acetamido)-2-hydroxy-3,4-dihydro-2H-benzo[e][1,2]oxaborinine-8-carboxylic acid], at E. coli K12 PBP3, the concentration giving a half-maximal response (EC50) was less than 30 µM. For the same molecule, at P. aeruginosa PBP3, the “P. aeruginosa PBP3 Potency” value is on record as “D (D represents a potency <10 μM)”. Moreover, the MIC in test [1] is 16 to 32 µg/mL (≈ 26.6 to 53.1 µM); with N. gonorrhoeae FA1090, 0.25 to 0.5 µg/mL (≈ 0.415 to 0.83 µM); in the test on N. gonorrhoeae H041, 16 to 32 µg/mL (≈ 26.6 to 53.1 µM); in the test with N. gonorrhoeae WHO G, 1 to 2 µg/mL (≈ 1.66 to 3.32 µM); with N. gonorrhoeae WHO K, 16 to 32 µg/mL (≈ 26.6 to 53.1 µM); in the test on N. gonorrhoeae WHO L, greater than 64 µg/mL.
At E. coli K12 PBP3, `CCN1CCN(C(=O)NC(C(=O)N[C@H]2Cc3cccc(C(=O)O)c3OB2O)c2cccc(S(N)(=O)=O)c2)C(=O)C1=O` (stereo partly drawn) [Example 99, (3R)-3-(2-(4-ethyl-2,3-dioxopiperazine-1-carboxamido)-2-(3-sulfamoylphenyl)acetamido)-2-hydroxy-3,4-dihydro-2H-benzo[e][1,2]oxaborinine-8-carboxylic acid] gave an EC50 of 30 to 500 µM. In addition, the “P. aeruginosa PBP3 Potency” value at P. aeruginosa PBP3 was “D (D represents a potency <10 μM)”. Further, the MIC in test [1] was 16 to 32 µg/mL (≈ 27.2 to 54.5 µM); in the test on N. gonorrhoeae FA1090, 0.25 to 0.5 µg/mL (≈ 0.426 to 0.851 µM); in the test with N. gonorrhoeae H041, 16 to 32 µg/mL (≈ 27.2 to 54.5 µM); in the test with N. gonorrhoeae WHO G it was 1 to 2 µg/mL (≈ 1.7 to 3.4 µM); in the test on N. gonorrhoeae WHO K, 16 to 32 µg/mL (≈ 27.2 to 54.5 µM); in the test on N. gonorrhoeae WHO L, greater than 64 µg/mL.
